Assay results: ChEMBL document CHEMBL6109155, “Discovery of Phenylacylpiperidine as Novel sEH Inhibitors through Scaffold Hopping of Natural Stilbene” (J Med Chem, 2025)
pIC50: −log10 of the molar value. Active and inactive are the calls of the source. The calls are words filed in the database; no cut-off is given here.

Assays:
Mus musculus [1] = experiment: Anti-inflammatory activity in BALB/c mouse model of carrageenan-induced paw edema at 20 mg/kg, po measured for 0.5 to 6 hrs; type: functional, organism-based; details: time 0.5-6 hrs
Mus musculus [2] = experiment: Anti-inflammatory activity in BALB/c mouse model of carrageenan-induced paw edema assessed as inhibition of paw swelling at 20 mg/kg, po measured for 2 hrs relative to control; type: functional
Mus musculus [3] = experiment: Anti-inflammatory activity in BALB/c mouse model of carrageenan-induced paw edema assessed as inhibition of paw swelling at 20 mg/kg, po measured for 6 hrs relative to control; type: functional
Mus musculus [4] = experiment: Anti-inflammatory activity in BALB/c mouse model of carrageenan-induced paw edema assessed as inhibition of paw swelling at 20 mg/kg, po measured up to 6 hrs relative to control; type: functional
Mus musculus [5] = experiment: Anti-inflammatory activity in BALB/c mouse model of carrageenan-induced paw edema assessed as increase in ratio of 11,12-EET to DHET plasma levels at 10 mg/kg, po measured after 6 hrs relative to control; type: functional
Mus musculus [6] = experiment: Anti-inflammatory activity in BALB/c mouse model of carrageenan-induced paw edema assessed as increase in ratio of 14,15-EET to DHET plasma levels at 10 mg/kg, po measured after 6 hrs relative to control; type: functional
Mus musculus [7] = experiment: Anti-inflammatory activity in BALB/c mouse model of carrageenan-induced paw edema assessed as increase in plasma 11,12-EET levels at 10 mg/kg, po measured after 6 hrs relative to control; type: functional
Mus musculus [8] = experiment: Anti-inflammatory activity in BALB/c mouse model of carrageenan-induced paw edema assessed as decrease in plasma 14,15-DHET levels at 10 mg/kg, po measured after 6 hrs relative to control; type: functional; set-up: scale not given: the % may be the effect or the level left
Rattus norvegicus [9] = experiment: Anti-inflammatory activity in Sprague-Dawley rat model of CFA-induced rheumatoid arthritis assessed as improvement in joint tissue structure at 10 mg/kg, po administered daily measured after 19 days by H and E staining based analysis; type: functional, organism-based; details: time 19.0 day
Rattus norvegicus [10] = experiment: Anti-inflammatory activity in Sprague-Dawley rat model of CFA-induced rheumatoid arthritis assessed as decrease in paw swelling at 10 mg/kg, po administered daily measured after 7 days; type: functional, organism-based; details: time 7.0 day
Rattus norvegicus [11] = experiment: Anti-inflammatory activity in Sprague-Dawley rat model of CFA-induced rheumatoid arthritis assessed as decrease in arthritis index at 10 mg/kg, po administered daily measured for 7 to 19 days; type: functional, organism-based; details: time 7-19 day
Rattus norvegicus [12] = experiment: Anti-inflammatory activity in Sprague-Dawley rat model of CFA-induced rheumatoid arthritis assessed as improvement in chondrocytes morphology at 10 mg/kg, po administered daily measured after 19 days by H and E staining based analysis; type: functional, organism-based; details: time 19.0 day
Rattus norvegicus [13] = experiment: Anti-inflammatory activity in Sprague-Dawley rat model of CFA-induced rheumatoid arthritis assessed as reduction in hyperplasia in synovial tissue at 10 mg/kg, po administered daily measured after 19 days by H and E staining based analysis; type: functional, organism-based; details: time 19.0 day
Rattus norvegicus [14] = experiment: Anti-inflammatory activity in Sprague-Dawley rat model of CFA-induced rheumatoid arthritis assessed as […] in connective tissue proliferation in synovial tissue at 10 mg/kg, po administered daily measured after 19 days by H and E staining based analysis; type: functional, organism-based; details: time 19.0 day
Rattus norvegicus [15] = experiment: Anti-inflammatory activity in Sprague-Dawley rat model of CFA-induced rheumatoid arthritis assessed as decrease in lymphocytes infiltration in synovial tissue at 10 mg/kg, po administered daily measured after 19 days by H and E staining based analysis; type: functional, organism-based; details: time 19.0 day
Rattus norvegicus [16] = experiment: Anti-inflammatory activity in Sprague-Dawley rat model of CFA-induced rheumatoid arthritis assessed as decrease in plasma IL-6 level at 10 mg/kg, po administered daily measured after 19 days relative to control; type: functional; set-up: scale not given: the % may be the effect or the level left; details: time 19 day
Rattus norvegicus [17] = experiment: Anti-inflammatory activity in Sprague-Dawley rat model of CFA-induced rheumatoid arthritis assessed as BS/BV value at 10 mg/kg, po administered daily measured after 19 days by micro-CT analysis (reference value: 17.147 %); type: functional; details: time 19 day
Rattus norvegicus [18] = experiment: Anti-inflammatory activity in Sprague-Dawley rat model of CFA-induced rheumatoid arthritis assessed as BV value at 10 mg/kg, po administered daily measured after 19 days by micro-CT analysis (reference value: 37.091 mm3); type: functional; details: time 19 day
Rattus norvegicus [19] = experiment: Anti-inflammatory activity in Sprague-Dawley rat model of CFA-induced rheumatoid arthritis assessed as increase in plasma 14,15-EET level at 10 mg/kg, po administered daily measured after 19 days relative to control; type: functional; details: time 19 day
Mus musculus [20] = experiment: Anti-inflammatory activity in CD-1 mouse model of cerulein-induced acute pancreatitis assessed as decrease in inflammatory response in pancreas at 10 mg/kg, ip drug administered at 30 mins and 2.5 hrs post-first cerulein injection and measured after 6 hrs post-first cerulein injection by H and E staining based analysis; type: functional, organism-based; details: time 3.5-5.5 hrs
Mus musculus [21] = experiment: Anti-inflammatory activity in CD-1 mouse model of cerulein-induced acute pancreatitis assessed as decrease in plasma TNF-alpha level at 10 mg/kg, ip drug administered at 30 mins and 2.5 hrs post-first cerulein injection and measured after 6 hrs post-first cerulein injection; type: functional, organism-based; details: time 3.5-5.5 hrs
Mus musculus [22] = experiment: Anti-inflammatory activity in CD-1 mouse model of cerulein-induced acute pancreatitis assessed as increase in ratio of plasma 14,15-EET/DHET level at 10 mg/kg, ip drug administered at 30 mins and 2.5 hrs post-first cerulein injection and measured after 6 hrs post-first cerulein injection (reference value: 69.8 to 77.3 %); type: functional; details: time 3.5-5.5 hrs
Cytochrome P450 2C9 = Cytochrome P450 2C9 (Homo sapiens, UniProt P11712); experiment: Inhibition of CYP2C9 in human liver microsomes preincubated for 10 mins followed by NADPH addition measured after 3.5 mins by LC-MS/MS analysis; type: ADME, Microsome
Cytochrome P450 2C19 = Cytochrome P450 2C19 (Homo sapiens, UniProt P33261); experiment: Inhibition of CYP2C19 in human liver microsomes preincubated for 10 mins followed by NADPH addition measured after 3.5 mins by LC-MS/MS analysis; type: ADME, Microsome
[23] = Cmax in plasma of C57BL/6J mouse at 20 mg/kg, po measured for 24 hrs; type: ADME, organism-based
[24] = Ratio of Cmax in brain to plasma in C57BL/6J mouse at 20 mg/kg, po measured for 24 hrs; type: ADME, organism-based; details: brain and plasma
[25] = Ratio of AUC (0 to 24 hrs) in brain to plasma in C57BL/6J mouse at 20 mg/kg, po measured for 24 hrs; type: ADME, organism-based; details: brain and plasma, read-out: Ratio AUC
[26] = Cmax in kidney of C57BL/6J mouse at 20 mg/kg, po measured for 24 hrs; type: ADME, organism-based
[27] = AUC (0 to 24 hrs) in kidney of C57BL/6J mouse at 20 mg/kg, po measured for 24 hrs; type: ADME, organism-based
[28] = Ratio of AUC (0 to 24 hrs) in kidney to plasma in C57BL/6J mouse at 20 mg/kg, po measured for 24 hrs; type: ADME, organism-based; details: kidney and plasma, read-out: Ratio AUC
[29] = Tmax in Sprague-Dawley rat at 20 mg/kg, po measured for 24 hrs; type: ADME, organism-based; details: in vivo
[30] = Cmax in Sprague-Dawley rat at 20 mg/kg, po measured for 24 hrs; type: ADME, organism-based; details: in vivo
[31] = Half life in Sprague-Dawley rat at 5 mg/kg, iv measured for 24 hrs; type: ADME, organism-based; details: in vivo
[32] = Volume of distribution in Sprague-Dawley rat at 5 mg/kg, iv measured for 24 hrs; type: ADME, organism-based; details: in vivo

Sequence of Cytochrome P450 2C9 (P11712 whole entry): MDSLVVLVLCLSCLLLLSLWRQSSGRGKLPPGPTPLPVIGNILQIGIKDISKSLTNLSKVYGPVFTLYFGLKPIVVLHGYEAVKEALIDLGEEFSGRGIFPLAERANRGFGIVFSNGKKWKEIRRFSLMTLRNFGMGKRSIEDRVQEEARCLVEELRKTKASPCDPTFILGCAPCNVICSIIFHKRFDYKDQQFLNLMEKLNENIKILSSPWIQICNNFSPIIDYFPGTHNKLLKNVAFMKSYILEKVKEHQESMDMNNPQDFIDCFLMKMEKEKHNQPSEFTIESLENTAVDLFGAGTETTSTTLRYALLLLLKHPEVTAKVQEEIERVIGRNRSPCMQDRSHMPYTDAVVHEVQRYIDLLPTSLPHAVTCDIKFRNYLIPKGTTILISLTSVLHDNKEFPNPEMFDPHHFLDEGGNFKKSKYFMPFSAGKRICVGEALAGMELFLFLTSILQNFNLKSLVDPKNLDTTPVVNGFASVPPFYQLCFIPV
Sequence of Cytochrome P450 2C19 (P33261 whole entry): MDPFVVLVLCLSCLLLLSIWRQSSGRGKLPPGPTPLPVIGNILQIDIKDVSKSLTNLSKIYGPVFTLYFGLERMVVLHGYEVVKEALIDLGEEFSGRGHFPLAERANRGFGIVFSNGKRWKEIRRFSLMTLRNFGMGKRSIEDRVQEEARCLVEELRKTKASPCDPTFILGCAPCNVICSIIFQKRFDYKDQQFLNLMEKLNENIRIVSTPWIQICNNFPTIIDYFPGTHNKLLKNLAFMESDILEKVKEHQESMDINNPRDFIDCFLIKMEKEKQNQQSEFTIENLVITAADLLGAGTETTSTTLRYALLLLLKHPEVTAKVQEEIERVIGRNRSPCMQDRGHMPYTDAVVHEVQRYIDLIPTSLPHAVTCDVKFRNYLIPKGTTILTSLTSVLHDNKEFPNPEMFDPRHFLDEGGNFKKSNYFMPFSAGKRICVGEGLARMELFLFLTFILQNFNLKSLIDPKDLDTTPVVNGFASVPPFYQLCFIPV

COc1cc(CC(=O)N2CCC(NC(=O)NCc3ccc(OC(F)(F)F)cc3)CC2)cc(OC)c1
Activity (Mus musculus [1]): Active
inhibition in vivo at 20 mg/kg (Mus musculus [2]): 44.6%
inhibition in vivo at 20 mg/kg (Mus musculus [3]): 38.1%
inhibition in vivo at 20 mg/kg (Mus musculus [4]): 44.6%
Activity (Mus musculus [5]): 362%
Activity (Mus musculus [6]): 677%
Activity (Mus musculus [7]): 85.4%
Activity (Mus musculus [8]): 69.8%
Activity (Rattus norvegicus [9]): Active
Activity (Rattus norvegicus [10]): Active
Activity (Rattus norvegicus [11]): Active
Activity (Rattus norvegicus [12]): Active
Activity (Rattus norvegicus [13]): Active; Mild Hyperplasia Was Observed
Activity (Rattus norvegicus [14]): Active; Minimal Connective Tissue Proliferation Was Observed
Activity (Rattus norvegicus [15]): Active; Small Lymphocytes Infiltration Was Observed
Activity (Rattus norvegicus [16]): 60%
Activity (Rattus norvegicus [17]): 11.923%
Activity (Rattus norvegicus [18]): 36.234 mm3
Activity (Rattus norvegicus [19]): 175%
Activity (Mus musculus [20]): Active
Activity (Mus musculus [21]): Active
Activity (Mus musculus [22]): 905%
pIC50 (Cytochrome P450 2C9): 4.32
pIC50 (Cytochrome P450 2C19): 5.02
Cmax [23]: 482 ng/mL
Kp at 24 h [24]: 0.06
Kp at 24 h [25]: 0.02
Cmax [26]: 4540 ng/g
AUC(0-t) at 24 h [27]: 17200 ng·h/mL
Kp at 24 h [28]: 32.4
Tmax [29]: 30 min
Cmax [30]: 359 ng/mL
half-life [31]: 25.2 min
Vd [32]: 1.39 L/kg
